Assay results taken from ChEMBL document CHEMBL1132526, “Spiro-imidazo[1,2-a]indeno[1,2-e]pyrazine-4-one derivatives are mixed AMPA and NMDA glycine-site antagonists active in vivo” (Bioorg Med Chem Lett, 1999).

Experiments:
[1] = biological target: T1, Glutamate receptor ionotropic, AMPA (Rattus norvegicus, UniProt P19490+P19491+P19492+P19493); test: In vitro binding affinity towards ionotropic glutamate receptor AMPA using [3H]AMPA as radioligand in rat cortical membrane preparations; assay type: cell membranes
[2] = biological target: Glutamate NMDA receptor; test: In vitro binding affinity towards glycine modulatory site on the NMDA receptors using [3H]DCKA as radioligand in rat cortical membrane preparations; assay type: cell membranes
[3] = system: Mus musculus; test: In vivo activity determined by Maximum electroshock induced seizures (MES) assay in mice after ip administration; assay type: functional
[4] = system: Mus musculus; test: In vivo activity determined by Maximum electroshock induced seizures (MES) assay in mice after iv administration; assay type: functional
[5] = biological target: T1, Glutamate receptor ionotropic, AMPA; test: In vitro binding affinity towards Ionotropic glutamate receptor AMPA using [3H]AMPA as radioligand in rat cortical membrane preparations; assay type: cell membranes
[6] = Mus musculus, ip, read-out: ED50

SMILES	IC50 [1] [µM]	IC50 [2] [µM]	IC50 [5] [µM]	ED50 [3] [mg/kg]	ED50 ([4]; Mus musculus, iv, read-out: ED50) [mg/kg]	ED50 [3, 6] [mg/kg]	ED50 [4] [mg/kg]
O=C1CCC2(N1)c1ccccc1-c1nc(O)c3nccn3c12 (configuration not stated)	1.5	1.7					
CN1CCCC12c1ccccc1-c1nc(O)c3nccn3c12 (stereo in doubt; (+)-3e)	0.086	0.172		17	7		
CNC1(C)c2ccccc2-c2nc(O)c3nccn3c21 (configuration not stated)	3.4	2.74					
CNC(=O)N1CCCC12c1ccccc1-c1nc(O)c3nccn3c12 (configuration not stated)	4	1.7					
CN1CCCC12c1ccccc1-c1nc(O)c3nccn3c12 (single isomer, unassigned; (-))	4.9	1.16		80			
O=c1[nH]c2cc(-n3ccnc3)c([N+](=O)[O-])cc2[nH]c1=O [YM-90K]	0.35	10.4				12	
Oc1nc2c(n3ccnc13)C1(CCCC1)c1ccccc1-2	1.6	1.4					
CN1CCCC12c1ccccc1-c1nc(O)c3nccn3c12 (stereo in doubt; 3e)	0.2	0.42		31			10
Oc1nc2c(n3ccnc13)Cc1ccccc1-2	0.76	3				62	
O=C(O)CCC(=O)N1CCCC12c1ccccc1-c1nc(O)c3nccn3c12 (configuration not stated)	0.36	10				10	
Oc1nc2c(n3ccnc13)C1(CCCCN1)c1ccccc1-2 (configuration not stated)	0.39	1.18				45	
CC1(N)c2ccccc2-c2nc(O)c3nccn3c21 (configuration not stated)	2.5	1.4				30	
O=C(O)[C@@H]1C[C@H]2C[C@@H](CCc3nn[nH]n3)CC[C@H]2CN1 [TEZAMPANEL ANHYDROUS]	0.6	> 10				4	
Oc1nc2c(n3ccnc13)C1(CCNCC1)c1ccccc1-2	0.38	2					
NCC(=O)N1CCCC12c1ccccc1-c1nc(O)c3nccn3c12 (configuration not stated)	0.83	2.8				70	

Further compounds by falling IC50 [2], results first:

IC50 [1] [µM]	IC50 [2] [µM]	IC50 [5] [µM]	SMILES	ED50 [3] [mg/kg]	ED50 ([4]; Mus musculus, iv, read-out: ED50) [mg/kg]	ED50 [3, 6] [mg/kg]	ED50 [4] [mg/kg]
10	1.3		Oc1nc2c(n3ccnc13)C1(CCCN1Cc1ccccc1)c1ccccc1-2 (configuration not stated)				
4.4	1		CC1(C)c2ccccc2-c2nc(O)c3nccn3c21				
10	0.9		O=C(NCc1ccccc1)N1CCCC12c1ccccc1-c1nc(O)c3nccn3c12 (configuration not stated)				
0.2	0.64		Oc1nc2c(n3ccnc13)C1(CCNC1)c1ccccc1-2 (configuration not stated)			> 80	
2.3	0.6		Oc1nc2c(n3ccnc13)C1(CC1)c1ccccc1-2				
> 10	0.6		CC(C)(C)OC(=O)N1CCCC12c1ccccc1-c1nc(O)c3nccn3c12 (configuration not stated)				
0.61	0.56		CC(=O)N1CCCC12c1ccccc1-c1nc(O)c3nccn3c12 (configuration not stated)				
0.62	0.53		CCN1CCCC12c1ccccc1-c1nc(O)c3nccn3c12 (configuration not stated)			54	
0.42	0.52		CCCC1(N)c2ccccc2-c2nc(O)c3nccn3c21 (configuration not stated)			80	
4.3	0.47		CCCN1CCCC12c1ccccc1-c1nc(O)c3nccn3c12 (configuration not stated)				
1.7	0.3		CCCCC1(N)c2ccccc2-c2nc(O)c3nccn3c21 (configuration not stated)				
	0.28	0.25	Oc1nc2c(n3ccnc13)C1(CCCN1)c1ccccc1-2 (configuration not stated)			80	
7.1	0.13		O=C(Nc1ccccc1)N1CCCC12c1ccccc1-c1nc(O)c3nccn3c12 (configuration not stated)				
